The target in this assay is T1, human BRS-3 (Homo sapiens, UniProt P32247).
T1 construct: expressed in transfected cells
T1 sequence (P32247 1-399): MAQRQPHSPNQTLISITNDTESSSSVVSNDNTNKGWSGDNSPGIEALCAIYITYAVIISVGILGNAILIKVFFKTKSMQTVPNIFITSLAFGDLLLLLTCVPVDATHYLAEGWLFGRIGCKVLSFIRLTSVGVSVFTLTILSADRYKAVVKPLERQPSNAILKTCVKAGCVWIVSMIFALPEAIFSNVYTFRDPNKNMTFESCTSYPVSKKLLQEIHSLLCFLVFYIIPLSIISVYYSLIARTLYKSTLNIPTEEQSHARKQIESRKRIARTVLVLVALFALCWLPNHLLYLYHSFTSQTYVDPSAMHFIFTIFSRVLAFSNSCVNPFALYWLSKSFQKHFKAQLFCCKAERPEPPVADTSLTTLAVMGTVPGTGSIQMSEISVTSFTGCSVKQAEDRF
The assay is described as follows: Bombesin Receptor Subtype 3 (BRS3) radioligand binding assay. The following applies: selected compounds. The method, then: Human embryonic kidney (HEK 293) cells expressing human BRS-3 were cultured to confluence and harvested by aspirating the culture medium and rinsing twice with 1×PBS without Mg^++ and Ca^++. Cellstriper Solution (Cellgrow #25-056-C1, 3 mL) was added to each T-175 flask until all cells dissociated and then an additional 15 mL 1×PBS without Mg^++ and Ca^++ were added to each flask. Dissociated cells were collected by centrifuging at 1000 rpm for 10 minutes. Cell pellets were resuspended and homogenized at 4° C. using a Polytron homogenizer (setting 40, 20 stokes) in approximately 10 mL membrane preparation buffer (10 mM Tris pH 7.4, 0.01 mM Pefabloc, 10 μM phosphoramidon and 40 μg/mL Bacitracin) per T175 flask. After centrifugation at 2200 rpm (1000×g) for 10 minutes at 4° C., the supernatant was transferred to a clean centrifuge tube and spun at 18,000 rpm (38,742×g) for 15 minutes. at 4° C. Membranes were resuspended in the above membrane preparation buffer (1 mL/T-175 flask), homogenized, aliquoted, quickly frozen in liquid nitrogen and stored at −80° C.
For the [^125I]-[D-Tyr^6,β-Ala^11,Phe^13,Nle^14]-Bombesin(6-14), “[^125I]-dY-peptide”, radioligand assay the specific binding of [^125I]-dY-peptide to human BRS3 was measured by filtration assay in 96-well plate format. The receptor membrane (2 μg/well) in binding buffer (50 mM Tris pH 7.4, 5 mM MgCl2, 0.1% BSA and protease inhibitor cocktail) was mixed with compound in DMSO (1% final concentration) and 30 pM [^125I]-dY-peptide. After incubation for 1-2 hours at room temperature, membrane-bound [^125I]-dY-peptide was separated from free [^125I]-dY-peptide by filtering through GF/C filters presoaked in 1% PEI solution. The filters were washed five times with ice-cold washing buffer (1×PBS without Mg^++ and Ca^++). The radioactivity was determined by adding 30 μl of microscintillant/well after each plate was dried at room temperature overnight or placed at 50° C. for 1 hr.
The radioligand, [^3H]-1-{4-[(4,5-difluoro-2-hydroxycarbonylphenyl)phenyl]}-2-(4-cyclohexylmethyl-1H-imidazol-2-yl)ethane, was used for binding to receptor membranes generated with BRS3 from rat and mouse and was also utilized for the human receptor. Cell membranes (5 to 20 μg/well) were added to binding buffer (25 mM Tris pH 7.4, 10 mM MgCl2, 2 mM EDTA and protease I cocktail) containing compound in DMSO (1% final concentration) and 660 pM [^3H]-biphenyl. After incubation for 1-2 hours at room temperature, membrane bound [^3H]-biphenyl was separated from free radiologand by filtering through GF/C filters presoaked in 1% PEI solution. The filters were washed five times with ice-cold washing buffer (50 mM Tris pH 7.4, 10 mM MgCl2, 2.5 mM EDTA and 0.02% Triton X-100). The radioactivity was determined by adding 30 μl of microscintillant/well after each plate was dried at room temperature overnight or placed at 50° C. for 1 hr.
A Packard Top Count was used to read the filter plates. The data in % inhibition of binding was plotted vs. the log molar concentration of receptor ligand (compound). The IC50 was reported as the inflection point of the resulting sigmoidal curve.
The binding assays for the rat and mouse Bombesin Receptor Subtype 3 (BRS3) were performed in a similar fashion.
An NFATCHO cell line stably expressing human BRS3 cDNA was generated using standard cell biology techniques and used to prepare receptor membranes for the human “[^125I]-dY-peptide binding assay. The cell line was cultured in T175 flasks in Iscove's Modified Dulbecco's Medium with L-glutamine and 25 mM HEPES buffer (Gibco #12440-046) supplemented with 10% FBS (cat#SH30070.03, Hyclone, Logan, Utah), 1×HT Supplement (0.1 mM Sodium Hypoxanthine and 16 μM Thymidine Gibco #11067-030), 2 mM L-glutamine (Gibco #25030-081), 100 units/mL Penicillin-G and 100 μg/mL Streptomycin (Gibco #15140-122) and 1 mg/mL Geneticin (Gibco #10131-027).

In general, IC50 refers to the concentration at which inhibition is half-maximal. Regarding `CC(C)(C)Cc1c[nH]c(C(C)(O)Cc2ccc(-n3cccn3)cc2)n1` (stereo not drawn) [Example 33, 2-[4-(2,2-dimethylpropyl)-1H-imidazol-2-yl]-1-[4-(1H-pyrazol-1-yl)phenyl]propan-2-ol], the half-inhibitory concentration (IC50) came out at 0.195 µM. This lies in the sub-micromolar range. For `CC(=O)NC(Cc1ccc(-c2ccc(F)cn2)cc1)c1nc(CC(C)(C)C)c[nH]1` (stereo not drawn) [Example 9, N-{1-[4-(2,2-dimethylpropyl)-1H-imidazol-2-yl]-2-[4-(5-fluoropyridin-2-yl)phenyl]ethyl}acetamide], the concentration for half-maximal inhibition (IC50) amounted to 0.22 µM. The figure for `CCC(C)(C)Cc1c[nH]c(C2(Cc3ccc(-c4ccc(F)cn4)cc3)CCCN2)n1` (stereo not drawn) [Example 55, 2-[4-({2-[4-(2,2-dimethylbutyl)-1H-imidazol-2-yl]pyrrolidin-2-yl}methyl)phenyl]-5-fluoropyridine] is 0.0051 µM. In the case of `CC(C)(C)Cc1c[nH]c(C(C)(O)Cc2ccc(-c3ccc(F)cn3)cc2)n1` (stereo not drawn) [Example 15, 2-[4-(2,2-dimethylpropyl)-1H-imidazol-2-yl]-1-[4-(5-fluoropyridin-2-yl)phenyl]propan-2-ol] it was 0.19 µM. Take `CCC(C)(C)Cc1c[nH]c(C(Cc2ccc(-c3ccc(F)cn3)cc2)NC)n1` (single isomer, unassigned) [Example 6, 1-[4-(2,2-dimethylbutyl)-1H-imidazol-2-yl]-2-[4-(5-fluoropyridin-2-yl)phenyl]-N-methylethanamine]: the half-maximal inhibitory concentration (IC50) worked out at 0.285 µM.

As for `CCC(C)(C)Cc1c[nH]c(C(C)(O)Cc2ccc(-c3ccc(F)cn3)cc2)n1` (stereo not drawn) [Example 29, 2-[4-(2,2-dimethylbutyl)-1H-imidazol-2-yl]-1-[4-(5-fluoropyridin-2-yl)phenyl]propan-2-ol], the IC50 was 0.058 µM. In the case of `CC(C)(C)Cc1c[nH]c(C(O)Cc2ccc(-c3ccc(F)cn3)cc2)n1` (stereo not drawn) [Example 18, 1-[4-(2,2-dimethylpropyl)-1H-imidazol-2-yl]-2-[4-(5-fluoropyridin-2-yl)phenyl]ethanol] it was 0.11 µM. Turning to `CCNC(Cc1ccc(-c2ccccn2)cc1)c1nc(CC(C)(C)C)c[nH]1` (stereo not drawn) [Example 3, 1-[4-(2,2-dimethylpropyl)-1H-imidazol-2-yl]-N-ethyl-2-(4-pyridin-2-ylphenyl)ethanamine], the half-maximal inhibitory concentration (IC50) was found to be 0.245 µM.

`CC(C)(C)Cc1c[nH]c(C(O)Cc2ccc(-c3ccccn3)cc2)n1` (stereo not drawn) [Example 1, 1-[4-(2,2-dimethylpropyl)-1H-imidazol-2-yl]-2-(4-pyridin-2-ylphenyl)ethanol] came in with an IC50 of 0.12 µM.

(Values after US8318767B2, “Substituted imidazoles as bombesin receptor subtype-3 modulators” (Merck Sharp & Dohme Corp, priority 2006, dated 2012).)
